This note sets out measurements from US7795290B2 (Genentech, Inc., priority 2004, dated 2010).

Holding throughout (test): HTS ATP-utilizing enzyme assay, off-chip mobility-shift (Caliper HTS 250)
Common to all, as to type: biochemical

One assay has as its target T1, CASPASE-7 (Homo sapiens, UniProt P55210).
T1 sequence (P55210 24-198 limits assumed): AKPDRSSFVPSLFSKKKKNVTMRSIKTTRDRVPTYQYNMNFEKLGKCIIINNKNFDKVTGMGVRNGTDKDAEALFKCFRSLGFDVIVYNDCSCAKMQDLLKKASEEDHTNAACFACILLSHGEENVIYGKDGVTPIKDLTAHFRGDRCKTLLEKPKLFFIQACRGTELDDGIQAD
T1 sequence (P55210 207-303 limits assumed): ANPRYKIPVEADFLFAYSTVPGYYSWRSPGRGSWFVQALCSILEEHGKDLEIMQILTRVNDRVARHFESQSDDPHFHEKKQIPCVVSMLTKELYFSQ
The conditions noted are these: enzyme named = inhibitory activity/selectivity; test compound 10 μM; active = greater than three-sigma from mean. The method in brief:
(§1)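 Single-point screen at 10 µM compound: kinase reactions ran 2.5 h at 20–22 °C and were stopped with termination buffer. Inhibition was read as the substrate-to-phosphopeptide ratio by microfluidic mobility shift, with EDTA and DMSO wells as controls. Hits were called by three-sigma limits.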

Another assay deals with CHEK2 (Homo sapiens, UniProt O96017). The conditions noted are these: kinase named = inhibitory activity/selectivity; test compound 10 μM; active = greater than three-sigma from mean. An outline of the steps:
as §1

A further assay concerns the target T2, BMX (Homo sapiens, UniProt P51813).
T2 sequence (P51813 1-675): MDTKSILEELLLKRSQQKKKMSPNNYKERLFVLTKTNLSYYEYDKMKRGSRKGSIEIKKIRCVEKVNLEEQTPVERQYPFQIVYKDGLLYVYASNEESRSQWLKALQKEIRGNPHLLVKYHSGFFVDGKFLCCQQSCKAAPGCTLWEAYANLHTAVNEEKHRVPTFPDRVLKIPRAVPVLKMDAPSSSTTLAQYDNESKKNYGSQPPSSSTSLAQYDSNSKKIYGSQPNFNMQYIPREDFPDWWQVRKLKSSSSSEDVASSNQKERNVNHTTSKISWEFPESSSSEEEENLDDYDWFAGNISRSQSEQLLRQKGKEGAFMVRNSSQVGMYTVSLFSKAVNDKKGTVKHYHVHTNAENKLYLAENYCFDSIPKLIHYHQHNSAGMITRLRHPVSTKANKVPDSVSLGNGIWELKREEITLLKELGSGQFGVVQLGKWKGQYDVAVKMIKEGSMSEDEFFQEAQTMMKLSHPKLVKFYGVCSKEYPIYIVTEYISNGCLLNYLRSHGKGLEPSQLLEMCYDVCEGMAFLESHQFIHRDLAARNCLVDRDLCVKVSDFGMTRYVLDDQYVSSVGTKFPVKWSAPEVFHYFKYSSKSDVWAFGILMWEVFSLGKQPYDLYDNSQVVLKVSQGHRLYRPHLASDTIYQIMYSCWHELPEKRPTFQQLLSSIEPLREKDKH
The settings on record: kinase named = inhibitory activity/selectivity; test compound 10 μM; active = greater than three-sigma from mean. The method in brief: as §1

The next assay concerns the target T3, AKT1 (Homo sapiens, UniProt P31749).
T3 construct: purchased Upstate 14-276
The conditions noted are these: kinase named = inhibitory activity/selectivity; test compound 10 μM; active = greater than three-sigma from mean. An outline of the steps: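 AKT1 activity was measured by off-chip mobility shift (Caliper HTS 250) as the ratio of peptide substrate to phosphorylated product. Test compound was at 10 μM, with 2.5 h incubation at 20–22° C. EDTA wells served as 100% control and DMSO wells as 0%. Hits were called at three-sigma limits.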

In a further assay the target is SYK (Homo sapiens, UniProt P43405). The conditions noted are these: kinase named = inhibitory activity/selectivity; test compound 10 μM; active = greater than three-sigma from mean. The method in brief:
as §1

Another assay has as its target CDK2 (Homo sapiens, UniProt P24941). The settings on record: kinase named = inhibitory activity/selectivity; test compound 10 μM; active = greater than three-sigma from mean. The method in brief:
as §1

A further assay addresses T4, DYRK2 (Homo sapiens, UniProt Q92630).
T4 sequence (Q92630 1-601): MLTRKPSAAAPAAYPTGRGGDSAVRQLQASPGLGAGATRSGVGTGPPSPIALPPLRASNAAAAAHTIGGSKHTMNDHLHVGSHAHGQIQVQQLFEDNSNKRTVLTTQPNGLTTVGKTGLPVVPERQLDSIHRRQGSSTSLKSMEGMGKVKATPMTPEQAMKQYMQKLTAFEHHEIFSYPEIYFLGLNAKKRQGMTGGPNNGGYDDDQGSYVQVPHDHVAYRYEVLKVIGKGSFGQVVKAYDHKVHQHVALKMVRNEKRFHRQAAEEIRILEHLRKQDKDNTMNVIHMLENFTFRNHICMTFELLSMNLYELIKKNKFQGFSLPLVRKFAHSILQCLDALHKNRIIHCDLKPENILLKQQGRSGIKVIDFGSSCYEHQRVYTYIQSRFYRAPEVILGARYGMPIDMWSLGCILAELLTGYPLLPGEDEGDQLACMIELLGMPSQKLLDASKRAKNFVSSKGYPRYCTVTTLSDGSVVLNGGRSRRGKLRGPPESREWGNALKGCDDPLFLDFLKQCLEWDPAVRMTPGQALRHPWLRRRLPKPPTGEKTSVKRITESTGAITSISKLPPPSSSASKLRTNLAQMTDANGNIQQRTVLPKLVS
The settings on record: kinase named = inhibitory activity/selectivity; test compound 10 μM; active = greater than three-sigma from mean. An outline of the steps:
as §1

A further assay has as its target T5, FLT-3 (Homo sapiens, UniProt P36888).
T5 sequence (P36888 27-993): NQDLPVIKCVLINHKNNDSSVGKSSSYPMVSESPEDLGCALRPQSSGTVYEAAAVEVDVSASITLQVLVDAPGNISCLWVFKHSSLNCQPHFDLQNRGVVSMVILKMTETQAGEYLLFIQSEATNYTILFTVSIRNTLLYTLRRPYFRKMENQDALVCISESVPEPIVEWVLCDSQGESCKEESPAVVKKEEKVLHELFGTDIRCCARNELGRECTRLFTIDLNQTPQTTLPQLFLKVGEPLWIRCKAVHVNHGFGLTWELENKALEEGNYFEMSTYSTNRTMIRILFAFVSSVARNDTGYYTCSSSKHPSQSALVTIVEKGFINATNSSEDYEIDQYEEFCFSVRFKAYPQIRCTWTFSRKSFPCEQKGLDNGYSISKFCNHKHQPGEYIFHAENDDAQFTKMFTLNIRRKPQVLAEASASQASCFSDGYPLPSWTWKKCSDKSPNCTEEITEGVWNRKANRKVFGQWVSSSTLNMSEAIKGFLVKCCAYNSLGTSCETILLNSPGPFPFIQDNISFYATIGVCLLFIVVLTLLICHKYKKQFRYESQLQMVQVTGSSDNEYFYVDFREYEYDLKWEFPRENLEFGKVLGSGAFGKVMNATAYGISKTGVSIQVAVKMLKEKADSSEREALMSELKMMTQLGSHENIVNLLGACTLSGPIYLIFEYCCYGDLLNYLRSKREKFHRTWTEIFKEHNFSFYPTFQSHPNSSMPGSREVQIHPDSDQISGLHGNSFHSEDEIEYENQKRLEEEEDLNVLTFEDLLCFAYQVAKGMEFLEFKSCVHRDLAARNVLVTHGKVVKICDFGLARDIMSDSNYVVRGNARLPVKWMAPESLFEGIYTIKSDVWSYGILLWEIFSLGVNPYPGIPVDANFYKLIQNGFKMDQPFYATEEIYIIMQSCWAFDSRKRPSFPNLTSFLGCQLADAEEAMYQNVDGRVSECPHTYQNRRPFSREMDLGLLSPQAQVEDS
The conditions noted are these: kinase named = inhibitory activity/selectivity; test compound 10 μM; active = greater than three-sigma from mean. The method in brief: as §1

The target of the next assay is KIT (Homo sapiens, UniProt P10721). The settings on record: kinase named = inhibitory activity/selectivity; test compound 10 μM; active = greater than three-sigma from mean. The method in brief:
as §1

The target of a further assay is PDGFR-α (Homo sapiens, UniProt P16234). The conditions noted are these: kinase named = inhibitory activity/selectivity; test compound 10 μM; active = greater than three-sigma from mean. An outline of the steps: as §1
Another assay deals with T6, ZAP70 (Homo sapiens, UniProt P43403).
T6 sequence (P43403 1-619): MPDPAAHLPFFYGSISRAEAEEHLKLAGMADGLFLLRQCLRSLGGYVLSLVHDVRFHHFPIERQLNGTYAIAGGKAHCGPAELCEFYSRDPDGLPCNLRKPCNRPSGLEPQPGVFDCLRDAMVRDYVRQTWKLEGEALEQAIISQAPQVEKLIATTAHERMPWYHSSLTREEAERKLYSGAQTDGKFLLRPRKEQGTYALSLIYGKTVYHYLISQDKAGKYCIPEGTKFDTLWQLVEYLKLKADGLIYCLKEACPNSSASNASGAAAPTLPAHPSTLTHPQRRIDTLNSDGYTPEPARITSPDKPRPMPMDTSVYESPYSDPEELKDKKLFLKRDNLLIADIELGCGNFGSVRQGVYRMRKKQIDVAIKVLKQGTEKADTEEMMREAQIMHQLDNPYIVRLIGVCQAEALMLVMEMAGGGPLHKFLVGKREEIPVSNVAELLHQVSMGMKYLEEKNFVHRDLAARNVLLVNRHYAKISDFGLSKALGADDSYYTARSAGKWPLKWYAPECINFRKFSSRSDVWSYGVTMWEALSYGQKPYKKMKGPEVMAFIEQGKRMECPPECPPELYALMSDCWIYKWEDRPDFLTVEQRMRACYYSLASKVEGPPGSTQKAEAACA
The conditions noted are these: kinase named = inhibitory activity/selectivity; test compound 10 μM; active = greater than three-sigma from mean. The method in brief:
as §1

Another assay deals with T7, PDK1 (Homo sapiens, UniProt O15530).
T7 sequence (O15530 1-556): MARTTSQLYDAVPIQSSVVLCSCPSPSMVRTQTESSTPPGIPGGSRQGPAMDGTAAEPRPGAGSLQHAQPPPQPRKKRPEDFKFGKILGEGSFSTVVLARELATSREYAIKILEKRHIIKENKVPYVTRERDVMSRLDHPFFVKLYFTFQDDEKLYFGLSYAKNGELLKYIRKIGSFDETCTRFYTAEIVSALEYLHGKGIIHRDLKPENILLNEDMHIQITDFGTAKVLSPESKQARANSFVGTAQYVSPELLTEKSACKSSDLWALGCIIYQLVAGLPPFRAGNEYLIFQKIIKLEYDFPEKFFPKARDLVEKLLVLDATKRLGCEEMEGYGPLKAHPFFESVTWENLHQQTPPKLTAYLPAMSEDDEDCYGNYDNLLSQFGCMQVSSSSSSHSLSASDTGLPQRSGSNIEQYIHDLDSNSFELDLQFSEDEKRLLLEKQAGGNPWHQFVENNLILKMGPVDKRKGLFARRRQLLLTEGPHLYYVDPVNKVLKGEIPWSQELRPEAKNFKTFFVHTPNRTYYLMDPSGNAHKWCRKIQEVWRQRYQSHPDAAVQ
The conditions noted are these: kinase named = inhibitory activity/selectivity; test compound 10 μM; active = greater than three-sigma from mean. The method in brief: as §1

Structures are written as SMILES.

T3 sequence (P31749 whole entry): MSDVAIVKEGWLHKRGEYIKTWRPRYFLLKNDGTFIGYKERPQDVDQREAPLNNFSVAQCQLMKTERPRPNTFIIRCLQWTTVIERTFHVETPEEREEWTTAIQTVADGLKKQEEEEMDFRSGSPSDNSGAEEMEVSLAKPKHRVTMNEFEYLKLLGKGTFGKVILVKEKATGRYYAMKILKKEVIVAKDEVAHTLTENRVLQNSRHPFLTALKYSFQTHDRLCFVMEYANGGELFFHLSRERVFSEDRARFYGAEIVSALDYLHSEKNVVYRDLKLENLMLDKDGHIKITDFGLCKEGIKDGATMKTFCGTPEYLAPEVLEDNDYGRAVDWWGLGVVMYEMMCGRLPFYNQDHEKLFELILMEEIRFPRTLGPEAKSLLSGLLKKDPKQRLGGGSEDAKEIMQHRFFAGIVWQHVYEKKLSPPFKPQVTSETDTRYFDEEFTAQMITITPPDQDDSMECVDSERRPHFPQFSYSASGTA
CHEK2, sequence (O96017 whole entry): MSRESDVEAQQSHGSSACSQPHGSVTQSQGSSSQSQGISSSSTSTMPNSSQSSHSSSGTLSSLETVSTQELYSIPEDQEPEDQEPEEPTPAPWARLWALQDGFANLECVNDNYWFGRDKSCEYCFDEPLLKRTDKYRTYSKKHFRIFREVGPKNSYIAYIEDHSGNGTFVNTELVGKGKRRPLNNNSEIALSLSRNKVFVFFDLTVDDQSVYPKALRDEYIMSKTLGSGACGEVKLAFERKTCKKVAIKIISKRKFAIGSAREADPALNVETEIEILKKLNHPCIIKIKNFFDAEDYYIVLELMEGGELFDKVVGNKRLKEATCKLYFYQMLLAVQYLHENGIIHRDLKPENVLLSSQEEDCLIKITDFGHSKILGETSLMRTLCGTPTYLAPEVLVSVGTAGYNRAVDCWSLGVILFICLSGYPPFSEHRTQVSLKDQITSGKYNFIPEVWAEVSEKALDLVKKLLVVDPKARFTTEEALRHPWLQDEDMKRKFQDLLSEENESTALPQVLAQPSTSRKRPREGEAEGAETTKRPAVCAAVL
KIT, sequence (P10721 26-976): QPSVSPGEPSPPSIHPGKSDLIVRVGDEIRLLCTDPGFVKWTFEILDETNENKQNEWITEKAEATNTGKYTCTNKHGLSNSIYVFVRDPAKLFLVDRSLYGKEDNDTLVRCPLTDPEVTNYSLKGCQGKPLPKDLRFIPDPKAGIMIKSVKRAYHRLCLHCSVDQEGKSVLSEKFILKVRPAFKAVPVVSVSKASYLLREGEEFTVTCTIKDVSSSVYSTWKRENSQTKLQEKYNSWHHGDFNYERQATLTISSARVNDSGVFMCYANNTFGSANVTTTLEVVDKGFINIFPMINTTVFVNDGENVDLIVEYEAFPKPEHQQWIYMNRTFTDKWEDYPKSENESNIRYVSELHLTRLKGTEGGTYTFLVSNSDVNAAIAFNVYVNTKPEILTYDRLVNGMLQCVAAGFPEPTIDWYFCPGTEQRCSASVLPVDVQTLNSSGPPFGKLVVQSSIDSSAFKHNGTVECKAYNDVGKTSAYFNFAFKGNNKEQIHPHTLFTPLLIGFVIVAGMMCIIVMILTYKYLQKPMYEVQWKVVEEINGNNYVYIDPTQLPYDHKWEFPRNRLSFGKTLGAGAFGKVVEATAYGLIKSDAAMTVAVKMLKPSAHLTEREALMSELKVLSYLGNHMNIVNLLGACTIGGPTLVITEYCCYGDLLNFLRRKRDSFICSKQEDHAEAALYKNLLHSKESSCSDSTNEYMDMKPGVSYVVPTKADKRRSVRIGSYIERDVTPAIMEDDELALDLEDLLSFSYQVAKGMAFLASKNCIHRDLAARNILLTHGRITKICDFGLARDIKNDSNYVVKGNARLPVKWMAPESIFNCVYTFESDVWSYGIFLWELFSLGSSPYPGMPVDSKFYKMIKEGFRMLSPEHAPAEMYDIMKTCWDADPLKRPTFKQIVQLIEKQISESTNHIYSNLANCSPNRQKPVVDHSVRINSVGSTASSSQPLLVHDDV
PDGFR-α, sequence (P16234 24-1089): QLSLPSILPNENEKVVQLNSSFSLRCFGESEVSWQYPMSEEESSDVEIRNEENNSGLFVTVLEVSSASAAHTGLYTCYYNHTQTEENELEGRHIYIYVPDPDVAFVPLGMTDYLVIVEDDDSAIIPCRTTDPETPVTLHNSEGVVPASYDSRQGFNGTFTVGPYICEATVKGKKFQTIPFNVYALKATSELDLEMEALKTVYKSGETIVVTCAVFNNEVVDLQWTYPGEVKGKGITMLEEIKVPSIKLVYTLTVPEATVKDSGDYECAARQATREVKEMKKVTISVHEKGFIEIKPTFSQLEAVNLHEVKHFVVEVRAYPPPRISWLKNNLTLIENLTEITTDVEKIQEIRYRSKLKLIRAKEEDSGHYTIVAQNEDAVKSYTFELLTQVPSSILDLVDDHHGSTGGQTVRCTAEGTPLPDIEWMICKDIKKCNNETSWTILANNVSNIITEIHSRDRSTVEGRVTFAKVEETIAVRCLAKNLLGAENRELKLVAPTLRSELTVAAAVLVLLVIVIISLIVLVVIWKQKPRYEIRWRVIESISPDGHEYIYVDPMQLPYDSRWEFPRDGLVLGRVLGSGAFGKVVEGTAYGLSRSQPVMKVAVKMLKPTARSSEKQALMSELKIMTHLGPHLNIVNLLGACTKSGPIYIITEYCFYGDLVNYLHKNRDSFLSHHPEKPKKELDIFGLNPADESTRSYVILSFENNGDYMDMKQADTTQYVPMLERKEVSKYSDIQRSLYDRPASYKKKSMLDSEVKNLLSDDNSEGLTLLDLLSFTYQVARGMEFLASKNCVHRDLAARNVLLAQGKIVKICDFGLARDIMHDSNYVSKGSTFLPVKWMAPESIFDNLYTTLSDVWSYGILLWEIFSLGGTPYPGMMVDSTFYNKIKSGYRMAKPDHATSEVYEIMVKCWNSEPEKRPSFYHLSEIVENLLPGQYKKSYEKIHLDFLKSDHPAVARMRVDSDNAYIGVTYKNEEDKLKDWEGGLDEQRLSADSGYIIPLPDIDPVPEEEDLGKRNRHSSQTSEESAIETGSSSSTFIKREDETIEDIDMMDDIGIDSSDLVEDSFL

Regarding `COc1ccc(OC)c(-c2csc(N(CCCN(C)C)C(=O)c3ccccc3)n2)c1` [N-(4-(2,5-dimethoxyphenyl)thiazol-2-yl)-N-(3-(dimethylamino)propyl)benzamide], the Activity result is on record as “CASPASE-7” on CASPASE-7 and “CHEK2” at CHEK2.

As to `COc1ccc(-c2csc(N(CCCN3CCOCC3)C(=O)Cc3ccccc3Cl)n2)cc1` [2-(2-chlorophenyl)-N-(4-(4-methoxyphenyl)thiazol-2-yl)-N-(3-morpholinopropyl)acetamide], the Activity entry at BMX is recorded as “BMX”.

Consider `CCN(CC)c1ccc(-c2csc(N(CCCN3CCOCC3)C(=O)c3cccs3)n2)cc1` [N-(4-(4-(diethylamino)phenyl)thiazol-2-yl)-N-(3-morpholinopropyl)thiophene-2-carboxamide], for which the figures for the Activity entry on AKT1 and on SYK were “AKT1” and “SYK”, respectively.

On to `COc1ccc(-c2csc(N(CCCN3CCOCC3)C(=O)c3cc(Cl)sc3Cl)n2)cc1` [2,5-dichloro-N-(4-(4-methoxyphenyl)thiazol-2-yl)-N-(3-morpholinopropyl)thiophene-3-carboxamide], for which, on CDK2, the Activity entry is given as “CDK2”.

In the case of `COc1ccc(-c2csc(N(CCCN3CCOCC3)C(=O)c3snnc3C)n2)cc1` [N-(4-(4-methoxyphenyl)thiazol-2-yl)-4-methyl-N-(3-morpholinopropyl)-1,2,3-thiadiazole-5-carboxamide], the Activity entry at DYRK2 is given as “DYRK2”; on FLT-3, “FLT-3”; on KIT, “KIT”; at PDGFR-α, “PDGFR-α”; at ZAP70 it was “ZAP70”.

Turning to `COc1ccc(-c2csc(N(CCCN3CCOCC3)C(=O)c3sc(C)nc3C)n2)cc1` [N-(4-(4-methoxyphenyl)thiazol-2-yl)-2,4-dimethyl-N-(3-morpholinopropyl)thiazole-5-carboxamide], the Activity result on PDK1 is reported as “PDK1”.
